The source made the active and inactive calls. No cut-off for these calls is given here.
Assays:
[1] = molecular target: Beta-2 adrenergic receptor (Homo sapiens, UniProt P07550); experiment: Agonist activity at human adrenergic beta2 receptor expressed in H292 cells assessed as intracellular cAMP accumulation after 1 hr; format: functional, cell-based
Cavia porcellus [2] = experiment: Bronchodilatory activity against histamine-induced bronchoconstriction in guinea pig at ED80 intratracheally administered 2 hrs before challenge measured up to 12 hrs; format: functional; details: inhaled or nasal
Cavia porcellus [3] = organism: Cavia porcellus; experiment: Bronchodilatory activity against histamine-induced bronchospasm in guinea pig; format: functional, organism-based
Cavia porcellus [4] = experiment: Bronchodilatory activity against histamine-induced bronchoconstriction in guinea pig at ED80 intratracheally administered 2 hrs before challenge measured after 2 hrs; format: functional, organism-based
Cavia porcellus [5] = experiment: Bronchodilatory activity against histamine-induced bronchoconstriction in guinea pig at ED80 intratracheally administered 2 hrs before challenge measured up to 2 hrs; format: functional, organism-based

Beta-2 adrenergic receptor, sequence (P07550 whole entry): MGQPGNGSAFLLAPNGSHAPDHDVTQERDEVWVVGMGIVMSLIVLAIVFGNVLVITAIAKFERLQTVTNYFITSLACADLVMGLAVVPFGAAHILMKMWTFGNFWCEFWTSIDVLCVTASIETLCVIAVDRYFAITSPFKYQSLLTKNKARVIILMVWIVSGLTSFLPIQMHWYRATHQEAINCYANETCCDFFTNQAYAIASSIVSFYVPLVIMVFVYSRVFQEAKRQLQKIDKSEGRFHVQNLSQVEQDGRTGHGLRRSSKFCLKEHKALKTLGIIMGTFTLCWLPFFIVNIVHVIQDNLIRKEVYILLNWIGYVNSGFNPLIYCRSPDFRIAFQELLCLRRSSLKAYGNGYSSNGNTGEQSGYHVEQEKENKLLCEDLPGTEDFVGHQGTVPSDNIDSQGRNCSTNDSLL

Structure (SMILES) | EC50 [1] | also measured
CC(C)N(CCNCCc1ccc(O)c2[nH]c(=O)sc12)C(=O)CCOCCc1ccccc1 | 7.94 nM | 
CCCCN(CCNC[C@H](O)c1ccc(O)c2[nH]c(=O)sc12)C(=O)CCOCCc1ccccc1 | 0.794 nM | 
COc1ccc(CCNCCN(C)C(=O)CCOCCc2ccccc2)c2sc(=O)[nH]c12 | > 1000 nM | 
CN(CCc1ccc(O)c2[nH]c(=O)sc12)CCN(C)C(=O)CCOCCc1ccccc1 | > 1000 nM | 
CN(CCNCCc1ccc(O)c2[nH]c(=O)sc12)C(=O)CCOCCc1ccccc1 | 0.501 nM | 
CCCN(CCNCCc1ccc(O)c2[nH]c(=O)sc12)C(=O)CCOCCc1ccccc1 | 7.94 nM | 
COc1ccc(CC(C)NCC(O)c2ccc(O)c(NC=O)c2)cc1 (configuration not stated) [FORMOTEROL] |  | ED80 (Cavia porcellus [2]): 1.4 µg/kg
CCN(CCNCCc1ccc(O)c2[nH]c(=O)sc12)C(=O)CCOCCc1ccccc1 | 1 nM | 
CCCCN(CCNCCc1ccc(O)c2[nH]c(=O)sc12)C(=O)CCOCCc1ccccc1 | 1.58 nM | ED80 (Cavia porcellus [2]): 2.6 µg/kg; Activity (Cavia porcellus [3]): Dose-dependent effect; Activity (Cavia porcellus [4]): inactive; Activity (Cavia porcellus [5]): Active
CC(C)(CNCCc1ccc(O)c2[nH]c(=O)sc12)NC(=O)CCOCCc1ccccc1 | 7.94 nM | 
O=C(CCOCCc1ccccc1)NCCNCCc1ccc(O)c2nc(O)sc12 | 1.58 nM | 
OCc1cc(C(O)CNCCCCCCOCCCCc2ccccc2)ccc1O (configuration not stated) [SALMETEROL] |  | ED80 (Cavia porcellus [2]): 0.7 µg/kg
CCCCN(CCN(C)CCc1ccc(O)c2[nH]c(=O)sc12)C(=O)CCOCCc1ccccc1 | 126 nM | 

Reference: ChEMBL document CHEMBL1799993, “Design driven HtL: The discovery and synthesis of new high efficacy β₂-agonists” (Bioorg Med Chem Lett, 2011)
